This is an account of results in patent US7341836B2, “Modified cyclic nucleotide gated ion channels” (The Regents of the University of Colorado, priority 2001, dated 2008).

One assay relates to PDE VI. The note with it: cited from earlier work.
In the next assay the test system is PDE IV. The conditions noted are these: cited from earlier work.
A further assay concerns PDE III. The conditions noted are these: cited from earlier work.
The subject of assay [1] is HEK-293 cells expressing C460W/E583M channels. In words: PGE1-induced cAMP responses in cell populations (Ca2+ influx through C460W/E583M channels). The format is cell-based, human. The conditions noted are these: for effect of PDE inhibitor added after PGE1: 100 μM IBMX or 10 μM RO-20-1724. An excerpt:
In this Example, experiments conducted to detect cAMP levels in cells are described. Changes in cyclic AMP concentrations in response to PGE1 stimulation were monitored in HEK-293 cells by measuring Ca^2+ influx through C460W/E583M CNG channels (See, Rich et al. [2001], supra). HEK-293 cells express a variety of extracellular receptors including prostanoid receptors (Thomas and Hoffman, Mol. Pharmacol., 49:907-914 [1996]), and the cAMP-specific PDE type IV (Rich et al. [2001], supra; and Hoffmann et al., EMBO J., 18:893-903 [1999]). Based on PCR analysis, these cells also appear to express AC types II, […], VI, and VII, (Hellevuo et al., Biochem. Biophys. Res. Commun., 192:311-318 [1993]). C460W/E583M channels were expressed heterologously using an adenovirus construct (See, Rich et al. [2001], supra). The Ca^2+ permeability of the channel was used to detect changes in local cAMP concentration; the fluorescent indicator fura-2 was used to monitor Ca^2+ entry. With this approach, incremental changes in cAMP concentration are readily detected as changes in relative Ca^2+ influx rates through C460W/E583M channels (See, Rich et al., [2001], supra).
Transient responses were observed over a large range of PGE1 concentrations, from 0.01 to 10 μM (FIG. 17, Panel A). […] The decline was unlikely to result primarily from a reduction in AC activity (e.g., receptor desensitization), because of the sustained accumulation of total cellular cAMP in the presence of IBMX (See, FIG. 16, Panel B). To verify this, 100 μM IBMX was added at various times after PGE1 application.
To test whether PGE1 did indeed increase the total PDE activity, 100 nM PGE1 were added at various times after the initial application of 100 nM PGE1 (a subsaturating concentration). There was a negligible response to the subsequent addition of PGE1, even after 50 min (FIG. 17, Panel D). Taken together, the results of the experiments shown in FIG. 17, Panels C and D argue that the cAMP transient is due to an initial increase in AC activity, followed by a more profound increase in PDE activity. […] As indicated herein, these processes are crucial for the generation of spatially and temporally distinct cAMP signals.

Usually IC50 stands for the point on the concentration scale where inhibition reaches its midpoint. Regarding `CC(C)Cn1c(=O)n(C)c(=O)c2[nH]cnc21` [IBMX, 3-isobutyl-1-methylxanthine], the IC50 in the assay on PDE VI was 10 µM; with PDE IV it was 5 to 15 µM; with PDE III it was 2 µM. Also, the “slopes of the IBMX-induced responses” value in assay [1] (100 μM IBMX added 1-50 min after 100 nM PGE1) came to 0.0044 ± 0.0008 s⁻¹. In addition, the “effect of PDE inhibitor added after PGE1” value in assay [1] is “triggered a rapid Ca^2+ influx”.

Take `CCCCOc1cc(CC2CNC(=O)N2)ccc1OC` (stereo not shown) [RO-20-1724, 4-(3-butoxy-4-methoxybenzyl)-2-imidazolidinone]: in the assay with PDE III, the IC50 was 52 µM. Further, the “effect of PDE inhibitor added after PGE1” value in assay [1] is listed as “caused sharp increases in cAMP”.
